Test results reported in patent US20200254065A1, “LONG-ACTING GLP-2 ANALOGS” (OPKO Biologics Ltd., priority 2019, published 2020).
Marks after values point to notes of the source that are not given here. Square brackets hold non-standard residues; d marks the D form. Peptide text beside a SMILES is read from it. Nle = CCCC[C@H](N)C(=O)O

Tests used:
[1] = molecular target: T1, GLP-2 receptor (Homo sapiens, UniProt O95838); experiment: GLP-2 receptor Cell Based Assay (CBA)
T1 sequence (O95838 1-553): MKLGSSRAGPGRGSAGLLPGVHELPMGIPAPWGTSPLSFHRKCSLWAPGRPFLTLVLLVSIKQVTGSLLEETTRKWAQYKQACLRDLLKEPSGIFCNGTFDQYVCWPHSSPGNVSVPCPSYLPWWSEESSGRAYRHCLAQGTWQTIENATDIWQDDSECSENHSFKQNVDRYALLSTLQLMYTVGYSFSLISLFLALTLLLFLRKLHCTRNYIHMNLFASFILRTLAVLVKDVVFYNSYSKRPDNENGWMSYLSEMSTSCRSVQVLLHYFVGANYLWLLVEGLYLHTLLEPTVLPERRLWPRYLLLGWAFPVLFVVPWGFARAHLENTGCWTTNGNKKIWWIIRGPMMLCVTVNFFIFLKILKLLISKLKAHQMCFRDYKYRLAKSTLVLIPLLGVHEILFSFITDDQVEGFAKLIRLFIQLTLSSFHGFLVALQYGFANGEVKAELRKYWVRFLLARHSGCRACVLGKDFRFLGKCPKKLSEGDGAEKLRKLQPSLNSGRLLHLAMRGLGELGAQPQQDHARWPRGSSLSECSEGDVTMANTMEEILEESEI
Method: Evaluation of in vitro binding affinity of the different peptides was assessed by using Cell Based Assay (CBA) in the presence of escalating doses of the different peptides.

[2] = tested on: small intestine; experiment: Intestine weight model in rats; type: in vivo, SD rats; conditions: for Small intestine weight increase over vehicle (%): MAL-FMS-V4 compared to Vehicle 2
Method in brief: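 Rat intestinal growth model: conjugates given s.c. at 0.5–8.0 mg/kg peptide dose, as one injection, on days 1 and 3, or every 6 days; small intestine weighed on day 3, 6, 7, 10, 12 or 14. Histology (H&E, duodenum/jejunum/ileum) gave crypt+villus length. Both reported as % increase over vehicle.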

EC50 Ratio to Teduglutide ([1]; Table 7): 3.8 | EC50 Ratio to Teduglutide ([1]; Table 8, average of 3 independent CBA): 1.8
SMILES: CCCC[C@H](NC(=O)[C@H](CCC(=O)O)NC(=O)[C@H](CC(=O)O)NC(=O)[C@H](CO)NC(=O)[C@H](Cc1ccccc1)NC(=O)[C@H](CO)NC(=O)CNC(=O)[C@H](CCC(=O)O)NC(=O)CNC(=O)[C@@H](N)Cc1c[nH]cn1)C(=O)N[C@@H](CC(N)=O)C(=O)N[C@H](C(=O)N[C@H](C(=O)N[C@@H](CC(C)C)C(=O)N[C@@H](CC(=O)O)C(=O)N[C@@H](CC(C)C)C(=O)N[C@@H](CC(C)C)C(=O)N[C@@H](C)C(=O)N[C@@H](C)C(=O)N[C@@H](CCCNC(=N)N)C(=O)N[C@@H](CC(=O)O)C(=O)N[C@@H](Cc1ccccc1)C(=O)N[C@H](C(=O)N[C@@H](CC(N)=O)C(=O)N[C@@H](Cc1c[nH]c2ccccc12)C(=O)N[C@@H](CC(C)C)C(=O)N[C@H](C(=O)N[C@@H](CCC(N)=O)C(=O)N[C@H](C(=O)N[C@@H](CCCCN)C(=O)N[C@H](C(=O)N[C@H](C(=O)N[C@@H](CC(=O)O)C(N)=O)[C@@H](C)O)[C@@H](C)CC)[C@@H](C)O)[C@@H](C)CC)[C@@H](C)CC)[C@@H](C)CC)[C@@H](C)O [Variant 4] (H-HGEGSFSDE[Nle]NTILDLLAARDFINWLIQTKITD-NH2)
Small intestine weight percent increase over vehicle (FIG. 12) ([2]; Study 15203, single SC 2 mg/kg peptide content on Day 1, Days 6 and 10): the most favorable results | Small intestine weight percent increase over vehicle (FIG. 15) ([2]; Study 15205, single SC 0.5, 2.0 or 8.0 mg/kg, Days 3, 7 and 14): reached maximal acute response at day 3 | Increase of intestine weight over vehicle (%) ([2]; modified peptides, two injections on days 1 & 3 at 1 mg/kg, intestine weight on day 6): 89% | Avg. small intestine weight (gr) ([2]; normal SD rats, injected once at 2 mg/kg peptide dose, 6th day): 7.0 gr | Small intestine weight increase over vehicle (%) ([2]; normal SD rats, injected once at 2 mg/kg peptide dose, 6th day, listed as V4, 2 mg/kg): 43.0** % | Small intestine weight increase over vehicle (%) ([2]; normal SD rats, injected once at 2 mg/kg peptide dose, 6th day, listed as V4 peptide, 2 mg/kg): the most pronounced effect on the small intestine weight
